Experimental data taken from PubChem BioAssay AID2060884 (Molecular Pharmacology Branch, DTP, NCI, 2025).

Tested on: NCI-H929 complex spheroids, viability % test/control
Assay: Anticancer human tumor NCI-H929 cell line growth inhibition [RAS];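 further: compound exposure lasted seven days before viability was read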;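 on viability, T/C: 100% = DMSO vehicle control viability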
Conditions: for viability, T/C: stronger effect = lower value; active means viability on the fitted dose curve at most 10% of control; inactive means the rest
Outline: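 Tumour cells grown as complex spheroids with HUVEC endothelial cells and mesenchymal stem cells, treated with RAS pathway inhibitor combinations. Each agent spans half-log steps from near clinical Cmax, or 10 microM where Cmax is unknown.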

[1] = curve of first compound, second compound 0.000949 µM
[2] = curve of first compound, second compound 0.003 µM
[3] = curve of first compound, second compound 0.00949 µM
[4] = curve of first compound, second compound 0.03 µM
[5] = curve of first compound, second compound 0.0949 µM
[6] = curve of first compound, second compound 0.3 µM
[7] = second compound 0.000949 µM, first compound 0.0316 µM
[8] = second compound 0.000949 µM, first compound 0.1 µM
[9] = second compound 0.000949 µM, first compound 0.316 µM
[10] = second compound 0.000949 µM, first compound 1 µM
[11] = second compound 0.003 µM, first compound 0.0316 µM
[12] = second compound 0.003 µM, first compound 0.1 µM
[13] = second compound 0.003 µM, first compound 0.316 µM
[14] = second compound 0.003 µM, first compound 1 µM
[15] = second compound 0.00949 µM, first compound 0.0316 µM
[16] = second compound 0.00949 µM, first compound 0.1 µM
[17] = second compound 0.00949 µM, first compound 0.316 µM
[18] = second compound 0.00949 µM, first compound 1 µM
[19] = second compound 0.03 µM, first compound 0.0316 µM
[20] = second compound 0.03 µM, first compound 0.1 µM
[21] = second compound 0.03 µM, first compound 0.316 µM
[22] = second compound 0.03 µM, first compound 1 µM
[23] = second compound 0.0949 µM, first compound 0.0316 µM
[24] = second compound 0.0949 µM, first compound 0.1 µM
[25] = second compound 0.0949 µM, first compound 0.316 µM
[26] = second compound 0.0949 µM, first compound 1 µM
[27] = second compound 0.3 µM, first compound 0.0316 µM
[28] = second compound 0.3 µM, first compound 0.1 µM
[29] = second compound 0.3 µM, first compound 0.316 µM
[30] = second compound 0.3 µM, first compound 1 µM

CC(=O)OC12COC1CC(O)C1(C)C(=O)C(O)C3=C(C)C(OC(=O)C(O)C(NC(=O)OC(C)(C)C)c4ccccc4)CC(O)(C(OC(=O)c4ccccc4)C21)C3(C)C (stereo not given) + CCn1c(-c2cc(N3CCN(C)CC3)cnc2C(C)OC)c2c3cc(ccc31)-c1csc(n1)CC(NC(=O)C1CC1C)C(=O)N1CCCC(N1)C(=O)OCC(C)(C)C2
active: viability, T/C [7] 0.9% | viability, T/C [8] 0.92% | viability, T/C [9] 1.34% | viability, T/C [10] 1.14% | viability, T/C (second compound 0.000949 µM, first compound 3.16 µM) 1.74% | viability, T/C (second compound 0.000949 µM, first compound 10 µM) 1.22% | viability, T/C [11] 1.12% | viability, T/C [12] 1.88% | viability, T/C [13] 1.04% | viability, T/C [14] 0.64% | viability, T/C (second compound 0.003 µM, first compound 3.16 µM) 1.46% | viability, T/C (second compound 0.003 µM, first compound 10 µM) 0.97% | viability, T/C [15] 1.36% | viability, T/C [16] 1.42% | viability, T/C [17] 1.07% | viability, T/C [18] 1.07% | viability, T/C (second compound 0.00949 µM, first compound 3.16 µM) 0.91% | viability, T/C (second compound 0.00949 µM, first compound 10 µM) 1.16% | viability, T/C [19] 1.81% | viability, T/C [20] 0.83% | viability, T/C [21] 0.75% | viability, T/C [22] 1.71% | viability, T/C (second compound 0.03 µM, first compound 3.16 µM) 0.99% | viability, T/C (second compound 0.03 µM, first compound 10 µM) 1.17% | viability, T/C [23] 1.09% | viability, T/C [24] 0.75% | viability, T/C [25] 0.6% | viability, T/C [26] 0.56% | viability, T/C (second compound 0.0949 µM, first compound 3.16 µM) 1.05% | viability, T/C (second compound 0.0949 µM, first compound 10 µM) 0.51% | viability, T/C [27] 0.99% | viability, T/C [28] 0.51% | viability, T/C [29] 0.87% | viability, T/C [30] 0.72% | viability, T/C (second compound 0.3 µM, first compound 3.16 µM) 0.64% | viability, T/C (second compound 0.3 µM, first compound 10 µM) 0.46%
< 31.6 nM: IC50 [1] | IC50 [2] | IC50 [3] | IC50 [4] | IC50 [5] | IC50 [6]

C=CC(=O)Nc1cc(Nc2nccc(-c3cn(C)c4ccccc34)n2)c(OC)cc1N(C)CCN(C)C + CCn1c(-c2cc(N3CCN(C)CC3)cnc2C(C)OC)c2c3cc(ccc31)-c1csc(n1)CC(NC(=O)C1CC1C)C(=O)N1CCCC(N1)C(=O)OCC(C)(C)C2
< 3.16 nM: IC50 [5] | IC50 [6]
active: viability, T/C (second compound 0.0949 µM, first compound 0.00316 µM) 7.68% | viability, T/C (second compound 0.0949 µM, first compound 0.01 µM) 6.73% | viability, T/C [23] 7.23% | viability, T/C [24] 6.05% | viability, T/C [25] 5.18% | viability, T/C [26] 1.96% | viability, T/C (second compound 0.3 µM, first compound 0.00316 µM) 4.84% | viability, T/C (second compound 0.3 µM, first compound 0.01 µM) 4.08% | viability, T/C [27] 4.06% | viability, T/C [28] 3.89% | viability, T/C [29] 3.59% | viability, T/C [30] 1.46%
120 nM: IC50 [4]
> 1000 nM: IC50 [1] | IC50 [2] | IC50 [3]
inactive: viability, T/C (second compound 0.000949 µM, first compound 0.00316 µM) 97.3% | viability, T/C (second compound 0.000949 µM, first compound 0.01 µM) 95% | viability, T/C [7] 103% | viability, T/C [8] 94.9% | viability, T/C [9] 105% | viability, T/C [10] 103% | viability, T/C (second compound 0.003 µM, first compound 0.00316 µM) 87.2% | viability, T/C (second compound 0.003 µM, first compound 0.01 µM) 95.3% | viability, T/C [11] 98.8% | viability, T/C [12] 98.4% | viability, T/C [13] 103% | viability, T/C [14] 106% | viability, T/C (second compound 0.00949 µM, first compound 0.00316 µM) 108% | viability, T/C (second compound 0.00949 µM, first compound 0.01 µM) 112% | viability, T/C [15] 112% | viability, T/C [16] 114% | viability, T/C [17] 111% | viability, T/C [18] 112% | viability, T/C (second compound 0.03 µM, first compound 0.00316 µM) 54.3% | viability, T/C (second compound 0.03 µM, first compound 0.01 µM) 46.8% | viability, T/C [19] 59.9% | viability, T/C [20] 49.9% | viability, T/C [21] 42.2% | viability, T/C [22] 9.94%

CCn1c(-c2cc(N3CCN(C)CC3)cnc2C(C)OC)c2c3cc(ccc31)-c1csc(n1)CC(NC(=O)C1CC1C)C(=O)N1CCCC(N1)C(=O)OCC(C)(C)C2 (stereo not given)
active: viability, T/C (compound 0.0949 µM) 5.7% [middle of 8 runs] | viability, T/C (compound 0.3 µM) 3.64% [middle of 8 runs]
inactive: viability, T/C (compound 0.000949 µM) 102% [middle of 8 runs] | viability, T/C (compound 0.003 µM) 101% [middle of 8 runs] | viability, T/C (compound 0.00949 µM) 116% [middle of 8 runs]
31.5 nM [middle of 8 runs]: IC50 (compound alone, run of 08/26/2024)
